For assay [1], the target named is T1, CNT1 (Homo sapiens, UniProt O00337).
T1 construct: expressed in transfected cells; host or cells: MDCKII (lentiviral transduction)
T1 sequence (O00337 1-649): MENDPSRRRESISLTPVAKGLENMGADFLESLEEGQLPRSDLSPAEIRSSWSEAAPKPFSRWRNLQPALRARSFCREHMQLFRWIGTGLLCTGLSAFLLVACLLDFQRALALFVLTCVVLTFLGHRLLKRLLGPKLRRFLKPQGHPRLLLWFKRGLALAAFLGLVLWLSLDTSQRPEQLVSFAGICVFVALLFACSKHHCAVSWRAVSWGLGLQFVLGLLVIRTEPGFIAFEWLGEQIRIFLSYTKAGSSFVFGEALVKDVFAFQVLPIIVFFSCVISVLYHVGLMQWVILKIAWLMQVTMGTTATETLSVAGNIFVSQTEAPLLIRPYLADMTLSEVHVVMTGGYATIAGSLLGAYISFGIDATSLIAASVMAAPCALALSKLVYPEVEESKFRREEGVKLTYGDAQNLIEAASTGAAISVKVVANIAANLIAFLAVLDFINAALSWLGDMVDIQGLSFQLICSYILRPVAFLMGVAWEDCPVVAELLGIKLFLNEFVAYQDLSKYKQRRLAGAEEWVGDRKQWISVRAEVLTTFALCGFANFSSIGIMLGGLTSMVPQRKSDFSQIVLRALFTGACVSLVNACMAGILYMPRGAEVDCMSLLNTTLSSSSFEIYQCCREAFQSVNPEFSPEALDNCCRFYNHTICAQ
The assay can be described thus: CNT1-mediated uridine uptake in CNT1-MDCKII cells. The format is cell-based. The note with it: for IC50: MDCKII cells, 1 µM uridine. Here is the method: ENT and CNT transporter interactions were investigated in transporter-overexpressing cell lines. Madin-Darby Canine Kidney II (MDCKII) cell lines overexpressing the human uptake transporters CNT1, CNT2, ENT1, and ENT2 were generated via lentiviral transduction. Cell cultures were maintained in Dulbecco’s modified Eagle’s medium (DMEM) and 4500 mg/L of glucose supplemented with GlutaMax^TM, 10% v/v fetal bovine serum (FBS), 100 units/mL penicillin, and 100 µg/mL streptomycin (all from Gibco/ThermoFisher, Waltham, MA, USA) at 37 °C in 5% CO2 at 95% humidity. For uptake inhibition assays, transporter-expressing cells and mock-transduced control cells were seeded on 96-well tissue culture plates at a density of 1 × 10^5 cells/well. Twenty-four hours after seeding, cells were rinsed twice with Krebs-Henseleit buffer (KH buffer, pH 7.4) and then preincubated for 30 min with solutions containing serial dilutions of the test compounds in KH at room temperature. Following preincubation, the solutions were removed, the cells were rinsed twice with KH buffer, and coincubation was started with a suitable radiolabeled substrate and the diluted series of test compounds. Assay conditions were as follows: 1 µM uridine (traced with 0.1 µCi ^3H-Uridine/well), 30 s (CNT1), and 1 min (CNT2, ENT1) incubations; 1 µM adenosine (traced with 0.1 µCi ^3H-Adenosine/well) and 2 min (ENT2) incubation. All experiments were conducted at room temperature. […] Uptake was terminated by rinsing twice with ice-cold KH buffer, and cells were lysed with 0.1 M NaOH. To determine the amounts of accumulated radiolabeled substrates, cell lysates mixed with a liquid scintillation cocktail were measured with a MicroBeta2 microplate counter (PerkinElmer, Singapore).
Transporter-specific accumulation of the probe substrate was calculated using the following formula: ACCSpec = ACCTRP − ACCMock, where ACCTRP is the accumulation of the probe in transporter-expressing cells and ACCMock is the accumulation of the probe in control cells. Relative transporter-specific accumulation values were calculated as percentages of the control value (with vehicle only).

Assay [2] addresses T2, ABCC4 (MRP4) (Homo sapiens, UniProt O15439).
T2 construct: purchased Solvo Biotechnology, Budapest; host or cells: HEK293
T2 sequence (O15439 1-1325): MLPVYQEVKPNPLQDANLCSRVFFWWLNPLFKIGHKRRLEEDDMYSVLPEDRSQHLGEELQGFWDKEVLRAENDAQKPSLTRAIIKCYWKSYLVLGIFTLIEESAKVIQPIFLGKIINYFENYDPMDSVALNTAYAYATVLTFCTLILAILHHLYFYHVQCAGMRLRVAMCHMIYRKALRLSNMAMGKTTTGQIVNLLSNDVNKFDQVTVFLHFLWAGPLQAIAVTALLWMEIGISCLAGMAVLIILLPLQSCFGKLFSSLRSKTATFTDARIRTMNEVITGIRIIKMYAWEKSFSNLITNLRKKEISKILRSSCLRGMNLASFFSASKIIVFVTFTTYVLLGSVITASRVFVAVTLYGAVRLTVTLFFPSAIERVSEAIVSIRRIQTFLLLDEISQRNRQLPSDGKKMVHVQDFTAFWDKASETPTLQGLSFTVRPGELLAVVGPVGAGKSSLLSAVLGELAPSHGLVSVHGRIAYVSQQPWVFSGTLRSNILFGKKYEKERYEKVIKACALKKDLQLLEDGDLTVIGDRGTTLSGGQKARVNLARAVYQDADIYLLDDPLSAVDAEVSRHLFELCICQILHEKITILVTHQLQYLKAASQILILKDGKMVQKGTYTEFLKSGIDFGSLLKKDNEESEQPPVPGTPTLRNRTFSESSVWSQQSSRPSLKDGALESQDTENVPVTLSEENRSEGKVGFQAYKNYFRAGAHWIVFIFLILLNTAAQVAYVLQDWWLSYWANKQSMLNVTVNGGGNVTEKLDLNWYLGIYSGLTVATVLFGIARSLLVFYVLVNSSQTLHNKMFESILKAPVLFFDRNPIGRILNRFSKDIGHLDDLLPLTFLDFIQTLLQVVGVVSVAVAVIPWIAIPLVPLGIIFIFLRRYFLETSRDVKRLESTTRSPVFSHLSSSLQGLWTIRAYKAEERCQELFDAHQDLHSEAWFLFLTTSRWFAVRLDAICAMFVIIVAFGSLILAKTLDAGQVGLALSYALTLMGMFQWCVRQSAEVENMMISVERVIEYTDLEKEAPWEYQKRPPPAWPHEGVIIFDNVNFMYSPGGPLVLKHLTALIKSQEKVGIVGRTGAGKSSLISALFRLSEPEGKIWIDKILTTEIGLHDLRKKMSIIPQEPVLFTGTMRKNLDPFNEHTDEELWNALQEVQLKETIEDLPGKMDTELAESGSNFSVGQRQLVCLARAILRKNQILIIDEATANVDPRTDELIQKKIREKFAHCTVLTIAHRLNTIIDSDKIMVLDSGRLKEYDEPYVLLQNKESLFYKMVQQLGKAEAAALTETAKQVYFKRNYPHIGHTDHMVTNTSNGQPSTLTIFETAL
Put plainly: ABCC4 vesicular transport (DHEAS), HEK293 inverted membrane vesicles. The note with it: concentrations up to 200 μM. The format is biochemical.

As to `CC(C)C(=O)OC[C@H]1O[C@@H](n2ccc(NO)nc2=O)[C@H](O)[C@@H]1O` [EIDD-2801, Molnupiravir], the midpoint of inhibition in assay [1], the IC50, lay at 84.9 µM. Moreover, the inhibition at 200 µM in assay [1] (read-out: inhibition of CNT1-mediated uridine uptake) is around 80%. In addition, the “effect on ATP-dependent DHEAS uptake by ABCC4/MRP4” value in assay [2] is recorded as “no significant effects”.

In the case of `O=c1nc(NO)ccn1[C@@H]1O[C@H](CO)[C@@H](O)[C@H]1O` [EIDD-1931], the 50% inhibitory concentration (IC50) in assay [1] worked out at 18.8 µM. Besides, in assay [1] (at 200 μM), the “inhibition of CNT1-mediated uridine uptake” value is “approximately 80%”. Besides, the “effect on ATP-dependent DHEAS uptake by ABCC4/MRP4” value in assay [2] was “no significant effects”.
